Results from US10682320B2, “Method for inhibiting osteoclast development” (West Virginia University, priority 2012, dated 2020).

Tests used:
[1] = test system: store-operated Ca2+ entry (SOCe); assay: Store-operated Ca2+ entry (SOCe) in human osteoclasts; assay type: cell-based; conditions: n=3; data not shown
Description: Human monocytes were isolated from normal buffy coat cells (60-80 ml) obtained with approval of institutional review boards by separation from donor blood, the white-cell depleted blood retained for clinical use. Human monocyte culture and differentiation were as reported (see, Yaroslayskly B B, Zhang Y, Kalla S E, Garcia P V, Sharrow A C, Li Y, Zaidi M, Wu C, Blair H C, “NO-dependent osteoclast motility: Reliance on cGMP-dependent protein kinase I and VASP”, J Cell Sci I, Vol. 18, pages 5479-5487, 2005). […]
Ratiometric imaging of intracellular Ca^2+ using fura-2 was as described (see, Zhou et al., 2009 above). […] Ca^2+ measurements were made using a Leica DMI 6000B fluorescence microscope controlled by Slidebook Software. Fluorescence emission at 505 nm was monitored while alternating between 340 and 380 nm excitation wavelengths at a frequency of 0.67 Hz; intracellular Ca^2+ measurements are shown as 340/380 nm emission ratios obtained from groups (35-45) of single cells. […]
The haloanilide DCPA blocks store-operated Ca^2+ channel function in Jurkat cells with no effect on ER Ca^2+ content. […] To address this, the present inventor examined HEK293 cells stably expressing Orai I and transiently transfected with YFP-STIMI and measured the effect of DCPA on CRAC current or Icrac. […]

[2] = target: T1, STIM I/Orai I interaction (Homo sapiens, UniProt Q13586); assay: 2-APB-induced STIM I ct translocation to plasma membrane; assay type: cell-based; conditions: DCPA 100 μM, 2-APB 50 μM
T1 construct: the cytosolic fragment of STIM I (STIM 1 ct); expressed in transfected cells
T1 sequence (Q13586 235-685 limits assumed): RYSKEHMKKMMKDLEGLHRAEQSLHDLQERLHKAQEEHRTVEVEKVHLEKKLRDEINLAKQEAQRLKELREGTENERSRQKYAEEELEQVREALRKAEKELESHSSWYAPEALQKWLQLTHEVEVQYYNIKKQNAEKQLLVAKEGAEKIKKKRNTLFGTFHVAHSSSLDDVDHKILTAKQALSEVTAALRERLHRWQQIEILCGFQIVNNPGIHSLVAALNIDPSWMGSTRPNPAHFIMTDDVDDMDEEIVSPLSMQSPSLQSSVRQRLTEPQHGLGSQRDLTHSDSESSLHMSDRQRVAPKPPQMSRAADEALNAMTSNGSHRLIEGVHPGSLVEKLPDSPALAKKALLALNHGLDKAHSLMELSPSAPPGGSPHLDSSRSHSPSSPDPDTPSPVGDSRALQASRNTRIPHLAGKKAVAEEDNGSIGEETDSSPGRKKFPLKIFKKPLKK

STIM I = target: T2, STIM I (Homo sapiens, UniProt Q13586); assay: STIM I puncta formation in HEK293 cells transfected with YFP-STIM I; assay type: cell-based; conditions: 2 μM thapsigargin, 16 minute period
T2 construct: expressed in transfected cells; host or cells: HEK293
T2 sequence (Q13586 23-685): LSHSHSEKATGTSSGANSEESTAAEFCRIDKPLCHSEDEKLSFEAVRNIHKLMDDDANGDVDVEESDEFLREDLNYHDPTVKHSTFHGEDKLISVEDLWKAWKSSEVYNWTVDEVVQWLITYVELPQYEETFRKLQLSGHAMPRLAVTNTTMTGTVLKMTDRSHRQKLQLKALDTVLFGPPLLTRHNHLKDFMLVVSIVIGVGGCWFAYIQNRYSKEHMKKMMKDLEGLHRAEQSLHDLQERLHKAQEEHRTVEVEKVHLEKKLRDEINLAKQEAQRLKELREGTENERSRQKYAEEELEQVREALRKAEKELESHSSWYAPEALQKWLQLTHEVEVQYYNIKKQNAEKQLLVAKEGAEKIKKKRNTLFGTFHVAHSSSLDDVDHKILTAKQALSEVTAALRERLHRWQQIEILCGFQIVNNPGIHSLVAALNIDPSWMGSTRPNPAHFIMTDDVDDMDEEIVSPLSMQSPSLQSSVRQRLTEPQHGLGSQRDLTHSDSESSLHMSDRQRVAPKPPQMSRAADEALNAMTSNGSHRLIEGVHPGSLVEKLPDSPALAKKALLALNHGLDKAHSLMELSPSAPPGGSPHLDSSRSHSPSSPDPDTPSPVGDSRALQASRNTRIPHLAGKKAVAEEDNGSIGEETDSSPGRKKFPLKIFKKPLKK
Description: HEK293 cells, maintained in DMEM with 10% FBS, were transfected with YFP-STIM I using Lipofectamine 2000 (Invitrogen, Carlsbad, Calif.) for 5 h (37° C.; 5% CO2) followed by a 24-h recovery. Cells were placed in 140 mM NaCl, 5 mM KCl, 1 mM MgCl2, 10 mM glucose, 15 mM HEPES, 0.1% BSA, 2 mM CaCl2 and analyzed by confocal microscopy for STIM I puncta formation using a Nikon phase-fluorescence microscope with CCD detectors (Diagnostic instruments, Sterling Heights, Mich.). Phase or transmitted light microscopy used 10-40× objectives and red, green, and blue filters to assemble color images. Fluorescence images used 1.4 NA 40× oil objectives. Red fluorescence used excitation at 530-560 nm, a 575 nm dichroic minor, and 580-650 nm emission filter. Transfection data were analyzed using Nikon NIS Elements Imaging Software. The effect of DCPA on STIM I/Orai I association was determined in wild-type HEK293 cells transfected with STIM I-YFP as described in Wang Y, Deng X, Zhou Y, Hendron E, Mancarelia S, Ritchie M F, Tang X D, Baba Y, Kurosaki T, Mori Y, Soboloff J, Gill DL, “STIM protein coupling in the activation of Orai channels”, Proc Natl Acad Sci USA, Vol. 106, pages 7391-7396, 2009. Experiments were performed on a Leica DMI 6000B fluorescence microscope controlled by Slidebook Software (Intelligent Imaging Innovations, Denver, Colo.). […]

[3] = cited from earlier work

## CCC(=O)Nc1ccc(Cl)c(Cl)c1 [DCPA, N-(3,4-dichlorophenyl)propanamide]
[1]
  reduction of SOCe in osteoclasts: 27.5%
[2]
  ability of 2-APB to induce STIM I ct translocation to the plasma membrane: dramatically attenuated
STIM I
  STIM I puncta formation after store depletion: dramatically inhibited
[3]
  doses mice can tolerate: > 100 mg/kg
[3]; mice
  doses producing frank immunotoxicity: > 150 mg/kg
